# Counter-ions that a name gives are not always drawn.
# Legend:
# [1] = target: T1, isolated kinase domain of the human FLT3 receptor (a.a. 571-993) (Homo sapiens, UniProt P36888); assay: FLT3 fluorescence polarization kinase assay; type: biochemical; conditions: 10 nM FLT3 571-993, 150 uM ATP; uncertainty ±10%; read-out: Flt-3 Kinase IC50
# T1 construct: human FLT3 receptor (a.a. 571-993)
# T1 sequence (P36888 571-993): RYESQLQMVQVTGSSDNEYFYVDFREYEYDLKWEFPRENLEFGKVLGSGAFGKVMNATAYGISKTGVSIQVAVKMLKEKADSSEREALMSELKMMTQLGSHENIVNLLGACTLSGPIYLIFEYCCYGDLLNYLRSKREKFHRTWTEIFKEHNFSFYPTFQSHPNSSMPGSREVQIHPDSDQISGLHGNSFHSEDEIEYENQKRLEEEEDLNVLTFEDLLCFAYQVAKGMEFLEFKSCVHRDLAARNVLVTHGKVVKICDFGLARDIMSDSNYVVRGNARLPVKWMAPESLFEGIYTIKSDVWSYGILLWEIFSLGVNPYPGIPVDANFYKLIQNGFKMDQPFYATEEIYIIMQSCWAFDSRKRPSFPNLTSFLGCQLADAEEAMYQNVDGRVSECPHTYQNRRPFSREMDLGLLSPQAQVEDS
# Description: The FLT3 FP assay utilizes the fluorescein-labeled phosphopeptide and the anti-phosphotyrosine antibody included in the Panvera Phospho-Tyrosine Kinase Kit (Green) supplied by Invitrogen. When FLT3 phosphorylates polyGlu4Tyr, the fluorescein-labeled phosphopeptide is displaced from the anti-phosphotyrosine antibody by the phosphorylated poly Glu4Tyr, thus decreasing the FP value. […] The kinase reaction is stopped with the addition of EDTA. The fluorescein-labeled phosphopeptide and the anti-phosphotyrosine antibody are added and incubated for 30 minutes at room temperature.
# Data points are an average of triplicate samples. Inhibition and IC50 data analysis was done with GraphPad Prism using a non-linear regression fit with a multiparamater, sigmoidal dose-response (variable slope) equation.
# [2] = system: MV4-11 cells; assay: Inhibition of MV4-11 cell proliferation (CellTiterGlo); type: cell-based; conditions: Homo sapiens, 72 hours growth, uncertainty ±20%
# Description: To assess the cellular potency of compounds of the present invention, FLT3 specific growth inhibition was measured in the leukemic cell line MV4-11 (ATCC Number: CRL-9591). MV4-11 cells are derived from a patient with childhood acute myelomonocytic leukemia with an 11q23 translocation resulting in a MLL gene rearrangement and containing an FLT3-ITD mutation (AML subtype M4)(1,2). MV4-11 cells cannot grow and survive without active FLT3ITD.
# To measure proliferation inhibition by compounds of the present invention, the luciferase based CellTiterGlo reagent (Promega), which quantifies total cell number based on total cellular ATP concentration, was used. Cells are plated at 10,000 cells per well in 100 ul of in RPMI media containing penn/strep, 10% FBS and 1 ng/ml GM-CSF or 1 ng/ml IL-3 for MV4-11 and Baf3 cells respectively.
# Compound dilutions or 0.1% DMSO (vehicle control) are added to cells and the cells are allowed to grow for 72 hours at standard cell growth conditions (37° C., 5% CO2). For activity measurements in MV4-11 cells grown in 50% plasma, cells were plated at 10,000 cells per well in a 1:1 mixture of growth media and human plasma (final volume of 100 μL). To measure total cell growth an equal volume of CellTiterGlo reagent was added to each well, according to the manufacturer's instructions, and luminescence was quantified. Total cell growth was quantified as the difference in luminescent counts (relative light units, RLU) of cell number at Day 0 compared to total cell number at Day 3 (72 hours of growth and/or compound treatment). One hundred percent inhibition of growth is defined as an RLU equivalent to the Day 0 reading. Zero percent inhibition was defined as the RLU signal for the DMSO vehicle control at Day 3 of growth.
# Data points are an average of triplicate samples. […] Inhibition and IC50 data analysis was done with GraphPad Prism using a non-linear regression fit with a multiparamater, sigmoidal dose-response (variable slope) equation.
Compound,IC50 [1] [nM],IC50 [2] [nM]
"Cc1cscc1-c1cc(N2CCN(C)CC2)ccc1NC(=O)c1ccc(C#N)o1 [Example 5, 5-Cyano-furan-2-carboxylic acid [4-(4-methyl-piperazin-1-yl)-2-(4-methyl-thiophen-3-yl)-phenyl]-amide]",10,666
"Cc1ccccc1-c1cc(N2CCN(C)CC2)ccc1NC(=O)c1ccc(C#N)o1 [Example 9, 5-Cyano-furan-2-carboxylic acid [2′-methyl-5-(4-methyl-piperazin-1-yl)-biphenyl-2-yl]-amide]",–,1000
"CN1CCN(c2ccc(NC(=O)c3ccc(C#N)o3)c(C3=CCCCC3)c2)CC1 [Example 11, 5-Cyano-furan-2-carboxylic acid [2-cyclohex-1-enyl-4-(4-methyl-piperazin-1-yl)-phenyl]-amide]",–,131
CN1CCN(c2ccc(NC(=O)c3ccc(C#N)o3)c(C3=CCOCC3)c2)CC1 [Example 12],–,> 10000
"N#Cc1c[nH]c(C(=O)Nc2ccc(C3CCNCC3)cc2C2=CCCCC2)c1 [Example 13, 4-Cyano-1H-pyrrole-2-carboxylic acid (2-cyclohex-1-enyl-4-piperidin-4-yl-phenyl)-amide trifluoroacetic acid salt]",29,–
"Cn1ccnc1CN1CCC(c2ccc(NC(=O)c3nc(C#N)c[nH]3)c(C3=CCCC3)c2)CC1 [Example 23, 4-Cyano-1H-imidazole-2-carboxylic acid {2-cyclopent-1-enyl-4-[1-(1-methyl-1 H-imidazol-2-ylmethyl)-piperidin-4-yl]-phenyl}-amide trifluoroacetic acid salt]",–,115
"N#Cc1c[nH]c(C(=O)Nc2ccc(C3CCN(CCN4CCOCC4)CC3)cc2C2=CCCCC2)n1 [Example 34, 4-Cyano-1H-imidazole-2-carboxylic acid {2-cyclohex-1-enyl-4-[1-(2-morpholin-4-yl-ethyl)-piperidin-4-yl]-phenyl}-amide di-trifluoroacetic acid salt]",–,8
"N#Cc1c[nH]c(C(=O)Nc2ccc(C3CCS(=O)(=O)CC3)cc2C2=CCCCC2)n1 [Example 35, 4-Cyano-1H-imidazole-2-carboxylic acid [2-cyclohex-1-enyl-4-(1,1-dioxo-hexahydro-1λ^6-thiopyran-4-yl)-phenyl]-amide]",–,192
"N#Cc1c[nH]c(C(=O)Nc2ccc(C3CCNCC3)cc2C2=CCS(=O)(=O)CC2)n1 [Example 36, 4-Cyano-1H-imidazole-2-carboxylic acid [2-(1,1-dioxo-1,2,3,6-tetrahydro-1λ^6-thiopyran-4-yl)-4-piperidin-4-yl-phenyl]-amide trifluoroacetic acid salt]",–,192
"CS(=O)(=O)CCN1CCC(c2ccc(NC(=O)c3nc(C#N)c[nH]3)c(C3=CCCCC3)c2)CC1 [Example 40, 4-Cyano-1H-imidazole-2-carboxylic acid {2-cyclohex-1-enyl-4-[1-(2-methanesulfonyl-ethyl)-piperidin-4-yl]-phenyl}-amide]",–,116
"C[C@@H]1CC(c2ccc(NC(=O)c3ncc(C#N)[nH]3)c(C3=CCCCC3)c2)C[C@H](C)N1 (stereo partly drawn) [Example 51a, 5-Cyano-1H-imidazole-2-carboxylic acid [2-cyclohex-1-enyl-4-(cis-2,6-dimethyl-piperidin-4-yl)-phenyl]-amide bis trifluoroacetic acid salt]",–,4.72
"CN(C)CC(=O)N1CCC(c2ccc(NC(=O)c3nc(C#N)c[nH]3)c(C3=CCC(C)(C)CC3)n2)CC1 [Example 55, 4-Cyano-1H-imidazole-2-carboxylic acid [1′-(2-dimethylamino-acetyl)-6-(4,4-dimethyl-cyclohex-1-enyl)-1′,2′,3′,4′,5′,6′-hexahydro-[2,4′]bipyridinyl-5-yl]-amide trifluoroacetic acid salt]",34,–

# — patent US7795279B2, “Method of inhibiting FLT3 kinase” (Janssen Pharmaceutica NV, priority 2005, dated 2010)
